Entries after “also recorded” stand apart in the source; their conditions may differ.
Assays:
mouse ATDC5 cells = assay: Peptide binding to cell surface, flow cytometry; type: cell-based; settings: 1 h room temperature, streptavidin-FITC; for binding to cell membrane of ATDC5 cells (flow cytometry) at 260 nmol: biotin-labeled peptide
Description: The mouse ATDC5 chondrogenic cell line is an important chondrocyte model that has been widely used in the study of chondrocyte proliferation and differentiation. This cell line was used to evaluate the membrane-binding ability of the modified peptide, as articular cartilage (which contains chondrocytes) is one of the main cellular components in the joint cavity. The cells were purchased from Guangzhou Jennio Biotech Co., Ltd. (Guangzhou, China) and maintained in Dulbecco's Modified Eagle Medium (DMEM, ThermoFisher, America) supplemented with 10% fetal bovine serum (FBS, Gibco, Australia) at 37°C in a humidified atmosphere with 5% CO2. The 5th−10th passages of the cells were used in the study.
To assess the binding ability of the modified peptide to the cell membrane, the three peptides were labeled with biotin at the C-terminus. Cultured mouse ATDC5 cells were washed with phosphate-buffered saline (PBS) and incubated with various concentrations of the control, original or modified peptides (65, 130, and 260 nmol, respectively) for 1 h at room temperature. After washing twice with PBS to remove the unbound peptides, streptavidin-fluorescein isothiocyanate (FITC; eBioscience, California, USA) was added and incubated for 0.5 h at room temperature. The cells were washed and resuspended in PBS and then the binding of the peptides to the cell membrane was assessed by flow cytometry (BD Biosciences, California, USA). To further assess the retention of peptides on the surface of cells, the mouse ATDC5 cells were cultured in a 12-well culture plate which contains cell slides on the bottom. They were washed with PBS on the next day and then blocked with normal goat serum for 30 min at room temperature before incubation with various concentrations of peptides (260 nmol, 540 nmol, and 1.08 mmol). The binding of the peptides to the cell membrane was then assessed by staining with streptavidin-FITC (eBioscience). After being stained, the cells that had adhered to the cell slides were mounted using ProLong Gold Antifade reagent (ZSGB-BIO, Beijing, china) containing 4′,6-diamidino-2-phenylindole (DAPI, ThermoFisher, America) dye to stain the cell nuclei. They were then analyzed by confocal laser scanning microscopy (Leica, Germany).
Figure 3 Modified peptide non-specifically bound to the cell surface. (A) Binding of peptides to the surface of mouse ATDC5 cells measured by flow cytometry. All experiments were performed three times and data are presented as mean ± SD. n = 5, ***p < 0.001, ns: not significant (p > 0.05). (B) Binding of various concentrations of biotin-labeled peptides on the surface of mouse ATDC5 cells assessed by confocal laser scanning microscopy. Arrowheads indicate the binding of the modified peptides on the surface of mouse ATDC5 cells.

human C9 = assay: Zn2+-induced human C9 polymerization assay; type: biochemical; settings: for inhibition of Zn2+-induced C9 polymerization at 5.24 μmol: peptide 5.24 μmol
Procedure: Certain concentrations of C9 can polymerize when induced by certain concentrations of Zn^2+. However, the polymerization can be suppressed when C9 binds to inhibitors. C9 polymerization assays were used to evaluate the inhibitory effect of the peptides on Zn^2+-induced polymerization of human C9. Briefly, 2 μg C9 was preincubated with the peptides in 20 mM Tris buffer (pH 7.2) at 37°C for 40 min and then 50 μM Zn^2+ was added to induce C9 polymerization at 37°C for 2 h. The samples were subjected to 2.5–15% polyacrylamide gel electrophoresis to assess the inhibitory effects of the peptides on human C9 polymerization; the gels were visualized by staining with Coomassie blue.
(§1) Figure 1 Modified peptide bound to human complement C9 and inhibited C9 polymerization-induced bio-function. (A) Microscale thermophoresis assay (NanoTemper) in which biomolecular interactions were quantitated by examining the motion of the molecules along a microscopic temperature gradient induced by an infrared laser. Changes in the molecular hydration shell, charge, or size are measured using a fluorescent probe (NT-647) bound covalently to the human C9. Binding of control, modified and original peptides to human C9 were studied. Data points indicate the differences in normalized fluorescence (%) generated by peptides binding to […], and curves indicate the calculated fits. […] Error bars represent the standard error of three independent measurements. […] Lane M: standard protein markers; lane 1: blank control (C9 without Zn^2+); lane 2: positive control (C9 with Zn^2+); lane 3: 5.24 μmol original peptide; lanes 4–6, 1.31, 2.62, and 5.24 μmol modified peptide, respectively; lane 7, 5.24 μmol control peptide. (C) Normal human serum (NHS)-induced complement-mediated hemolysis was inhibited by the modified and original peptides (2.62 and 5.24 μmol) compared to the control peptide. All experiments were performed three times and data are presented as mean ± SD. *p < 0.05, **p < 0.01.

human complement C9 = assay: Microscale thermophoresis (MST) binding to human C9; settings: for binding to human C9: NT-647-labeled human C9 1.5 μM, peptides diluted from 1.68 to 0 mM, distilled water with 0.05% Tween 20, 10 min room temperature, three independent measurements
Procedure: To assess the binding affinity of the peptides to human or mouse complement C9, a fluorescence-based biophysical technique known as MST (NanoTemper Technologies GmbH, Germany) was used. Briefly, human or mouse C9 was fluorescently labeled using a Monolith NT™ Protein Labeling Kit NT-647 (NanoTemper Technologies GmbH, Germany) based on the manufacturer's protocol. Next, the peptides were gradiently diluted in distilled water from 1.68 to 0 mM. The labeled human or mouse C9 (1.5 μM) was then incubated with various peptide concentrations for 10 min at room temperature before being loaded into K002 silica capillaries. Measurements were performed using a NanoTemper Monolith NT.115 instrument in distilled water containing 0.05% Tween 20. The data were analyzed using NanoTemper Analysis software (NanoTemper Technologies GmbH, Germany).
as §1

[1] = 2 μg C9, 50 μM Zn2+, 37°C 2 h, PAGE, Coomassie blue

| Substance | binding to cell membrane of ATDC5 cells (flow cytometry) at 260 nmol (mouse ATDC5 cells; 260 nmol) | inhibition of Zn2+-induced C9 polymerization at 5.24 μmol (human C9; [1]) | binding to human C9 (human complement C9) | ATDC5 cells bound to peptide (mouse ATDC5 cells; C-terminally biotin-labeled peptide, 260 nmol, flow cytometry, n = 5) | binding to cell surface of ATDC5 cells (flow cytometry), concentration dependence (mouse ATDC5 cells; biotin-labeled peptide 65, 130, 260 nmol) | inhibition of Zn2+-induced C9 polymerization, concentration dependence (human C9; 2 μg C9, 20 mM Tris pH 7.2, 37°C 40 min preincubation, 50 μM Zn2+ 2 h, peptide 1.31, 2.62, 5.24 μmol, 2.5–15% PAGE) | inhibition of Zn2+-induced C9 polymerization at 2.62 μmol (human C9; peptide 2.62 μmol, 2 μg C9, 50 μM Zn2+, 37°C 2 h, PAGE, Coomassie blue) | binding affinity to human C9 compared with original peptide (human complement C9; labeled human C9 1.5 μM, peptides 1.68 to 0 mM, Kd not given) |
| --- | --- | --- | --- | --- | --- | --- | --- | --- |
| GKMSVMSVYKSVLS [control peptide, reference compound] | did not bind to the cell membrane | did not inhibit C9 polymerization | no binding between human C9 and the control peptide | – | – | – | – | – |
| Myr-GSSKSPSKKKKKKPG-ACP-VSMGKSLSSKVYVM [modified peptide, Ts-pmy-derived peptide modified with a membrane-targeting signal] | – | fully inhibited; also recorded: completely | human C9 could bind to both the original and modified peptides; also recorded: concentration-dependent binding | ~100% | bound to the cell surface of mouse ATDC5 cells in a dose-dependent manner | inhibited Zn^2+-induced C9 polymerization in a dose-dependent manner | slightly | binding affinity that was similar to that of the original peptide |
| VSMGKSLSSKVYVM [original peptide, tetradecapeptide derived from Trichinella spiralis paramyosin (Ts-pmy)] | did not bind to the cell membrane | fully inhibited | human C9 could bind to both the original and modified peptides; also recorded: concentration-dependent binding | – | – | – | – | – |
